Test results published in patent US11992536B2, “Dual-targeting compound and preparation method and application thereof” (YANTAI LANNACHENG BIOTECHNOLOGY CO., LTD., priority 2022, dated 2024).

How the values were obtained:
FAP = biological target: T1, FAP (Homo sapiens, UniProt Q12884); test: Cell binding experiment in HT1080-FAP tumor cells (FIG. 11B); details: cell experiment of HT1080-FAP
T1 construct: expressed in transfected cells; host or cells: HT1080-FAP tumor cells
T1 sequence (Q12884 1-760): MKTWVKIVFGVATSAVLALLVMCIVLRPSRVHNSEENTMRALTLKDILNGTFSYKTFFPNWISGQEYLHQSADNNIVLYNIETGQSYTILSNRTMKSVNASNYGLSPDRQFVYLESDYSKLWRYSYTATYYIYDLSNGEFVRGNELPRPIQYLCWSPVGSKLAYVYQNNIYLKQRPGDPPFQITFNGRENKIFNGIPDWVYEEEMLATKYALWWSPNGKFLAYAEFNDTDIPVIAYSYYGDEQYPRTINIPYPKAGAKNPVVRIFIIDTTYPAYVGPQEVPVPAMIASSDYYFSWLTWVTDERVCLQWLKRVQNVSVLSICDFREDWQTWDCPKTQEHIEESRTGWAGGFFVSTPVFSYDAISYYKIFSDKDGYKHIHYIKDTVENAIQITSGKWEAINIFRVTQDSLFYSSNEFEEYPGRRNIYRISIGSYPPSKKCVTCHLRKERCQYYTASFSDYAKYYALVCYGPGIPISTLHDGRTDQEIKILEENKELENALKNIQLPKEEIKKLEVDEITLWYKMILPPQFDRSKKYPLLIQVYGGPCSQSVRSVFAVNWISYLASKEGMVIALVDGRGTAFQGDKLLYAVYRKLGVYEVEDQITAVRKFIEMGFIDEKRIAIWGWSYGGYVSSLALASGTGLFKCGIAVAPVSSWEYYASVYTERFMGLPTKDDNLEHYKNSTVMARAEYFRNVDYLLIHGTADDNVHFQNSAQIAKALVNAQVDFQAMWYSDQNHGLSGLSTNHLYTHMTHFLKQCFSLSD

HT1080-FAP tumor cells = test: Cell uptake and blocking experiment in HT1080-FAP tumor cells; type: cell-based; details: blocking experiment

## N#C[C@@H]1CCCN1C(=O)CNC(=O)c1ccnc2ccc(OCCCN3CCN(C(=O)CCOCCOCCNC(=O)[C@H](CCC(=O)NCCOCCOCCC(=O)NCCCC[C@@H]4NC(=O)[C@@H](Cc5ccccc5)NC(=O)[C@H](CC(=O)O)NC(=O)CNC(=O)[C@H](CCCNC(=N)N)NC4=O)NC(=O)CN4CCN(CC(=O)O)CCN(CC(=O)O)CC4)CC3)cc12 [68Ga-FAPI-RGD, metal not drawn]
FAP
  IC50: 11.2 nM

## N#C[C@@H]1CCCN1C(=O)CNC(=O)c1ccnc2ccc(OCCCN3CCN(C(=O)CN4CCN(CC(=O)O)CCN(CC(=O)O)CCN(CC(=O)O)CC4)CC3)cc12 [FAPI-02]
HT1080-FAP tumor cells
  blocking of the cell uptake of 68Ga-FAPI-RGD: partially inhibited

## C(RGDfK)
HT1080-FAP tumor cells
  blocking of the cell uptake of 68Ga-FAPI-RGD: partially inhibited
